# Data as given in patent publication US20070232563A1, “Method for Enhancing Biological Activity and/or Expanding Suitable Region for Biological Activity of Living Body Contacting with Aqueous Environment” (Kabushiki Kaisha Hayashibara Seibutsu Kagaku Kenky, priority 2004, published 2007).
# Experiments:
# [1] = tested on: short-necked clam (Ruditapes philippinarum); assay: Biological activity of short-necked clam (aqueduct extension score) in aqueous mineral solutions; assay type: in vivo; details: for Judgment score of biological activity: Experiment 2; for Judgment score for biological activity: total of 18 clams, 16 h
# Method: Suitable region for biological activity of short-necked clam (Ruditapes philippinarum), as a fish or shellfish living in seawater, was examined by adding various saccharides to mineral aqueous solutions with various concentrations. In detail, solar salt (85% by weight of sodium chloride and 15% by weight of magnesium) as minerals was dissolved in running water kept in a container for two days to give final concentrations described in the following Table 1. Saccharide (any one of D-glucose, maltose, sucrose, maltitol, α,α-trehalose, α-maltosyl α,α-trehalose, maltotetraose and cyclic tetrasaccharide) was dissolved in the resulting salt solutions to give a final concentration of 1 w/v %, on a dry solid basis. Each of the resulting solutions was placed in a plastic bat. Eighteen pre-selected active short-necked clam in one group were placed in the bat. The bat was shaded with a black cloth and left at ambient temperature (18° C.) for 16 hours. As a control, an aqueous solar salt solution without any saccharides was prepared. Saccharides except for α-maltosyl α,α-trehalose as a saccharide derivatives thereof and cyclic tetrasaccharide were chosen from commercialized products. α-Maltosyl α,α-trehalose as saccharide derivatives of α,α-trehalose in a powder form with a purity of 98 w/w % or over was prepared by the method disclosed in Experiment 4 in Japanese Patent Kokai No. 143876/1995. Cyclic tetrasaccharide in a crystalline form with a purity of 98 w/w % or over, on a dry solid basis, was prepared by the method disclosed in Example A-7 in International Patent Publication No. WO02/10361. Influence of various saccharides was judged by observing the degree of extending aqueduct of the shellfish; 3 points: its aqueduct is well extended; 2 points: its aqueduct is slightly extended; 1 point: its aqueduct is not extended but its shells are opened; 0 point: its shells are closed. The effect on biological activity was judged by the total point of 18 shellfishes. To investigate the effective concentration range of α,α-trehalose or α-maltosyl α,α-trehalose against a mineral solution with a concentration of 1.5 w/v % or 4.5 w/v %, where α,α-trehalose or α-maltosyl α,α-trehalose was remarkably effective in Experiment 1, the following experiment using α,α-trehalose or α-maltosyl α,α-trehalose at a concentration of 0.01, 0.1, 1, 2, 3 or 4 w/v % was carried out according to the method in Experiment 1. As a control, mineral aqueous solutions with a concentration of 1.5 w/v % or 4.5 w/v % without any of the saccharides were prepared and carried out in the same manner.
# unpolished rice = assay: Germination of unpolished rice in aqueous mineral solution; assay type: in vivo
# Method: Suitable mineral range of aqueous mineral solutions containing saccharides was examined by using unpolished rice as an agricultural product. In detail, a commercialized purified salt as a mineral was dissolved in tap water to give a final concentration of 0.5, 1.0, 1.5, or 2.0 as described in the following Table 6. α,α-Trehalose or α-maltosyl α,α-trehalose was dissolved in the resulting solutions to give a final concentration of 1 w/v %, on a dry solid basis. Absorbent cotton was allowed to absorb the resulting solution in an appropriate amount and placed in a plastic laboratory dish with a cover. Commercialized unpolished rice grains were placed on the cotton in the dish by 20 grains per group and kept at ambient temperature (25° C.) under a light-shaded condition by covering with a black cloth. As controls, an aqueous mineral solution without saccharides, and water without saccharides and minerals were prepared. […] Effective concentration of α,α-trehalose or α-maltosyl α,α-trehalose on expanding suitable region for biological activity of unpolished rice grains were determined by examining the number of germinated unpolished rice grains and germination time as an index in accordance with the method in Experiment 6 in the aqueous mineral solution with mineral concentration of 1.5 w/v %, where α,α-trehalose or α-maltosyl α,α-trehalose was effective in Experiment 6, containing α,α-trehalose or α-maltosyl α,α-trehalose in a concentration of 0.01, 0.1, 1, 2, 3, 4 or 6 w/v %, on a dry solid basis. As a control, water without saccharides or minerals was used.
# [2] = mineral 1.5 w/v %, saccharide 1 w/v %
# [3] = mineral 4.5 w/v %, saccharide 1 w/v %
compound,measurement,setting,value
"OC[C@H]1O[C@H](O[C@H]2O[C@H](CO)[C@@H](O[C@H]3O[C@H](CO)[C@@H](O[C@H]4O[C@H](CO)[C@@H](O)[C@H](O)[C@H]4O)[C@H](O)[C@H]3O)[C@H](O)[C@H]2O)[C@H](O)[C@@H](O)[C@@H]1O [α-Maltosyl α,α-trehalose, α-maltosyl α,α-trehalose]",Judgment score of biological activity,"[1]; mineral 1.5 w/v %, saccharide 0.01 w/v %",18
same,Judgment score of biological activity,"[1]; mineral 1.5 w/v %, saccharide 0.1 w/v %",35
same,Judgment score of biological activity,[1]; [2],41
same,Judgment score of biological activity,"[1]; mineral 1.5 w/v %, saccharide 2 w/v %",43
same,Judgment score of biological activity,"[1]; mineral 1.5 w/v %, saccharide 3 w/v %",34
same,Judgment score of biological activity,"[1]; mineral 1.5 w/v %, saccharide 4 w/v %",16
same,Judgment score of biological activity,"[1]; mineral 4.5 w/v %, saccharide 0.01 w/v %",16
same,Judgment score of biological activity,"[1]; mineral 4.5 w/v %, saccharide 0.1 w/v %",37
same,Judgment score of biological activity,[1]; [3],44
same,Judgment score of biological activity,"[1]; mineral 4.5 w/v %, saccharide 2 w/v %",45
same,Judgment score of biological activity,"[1]; mineral 4.5 w/v %, saccharide 3 w/v %",30
same,Judgment score of biological activity,"[1]; mineral 4.5 w/v %, saccharide 4 w/v %",15
same,Judgment score for biological activity,"[1]; mineral 0 w/v %, saccharide 1 w/v %",11
same,Judgment score for biological activity,"[1]; mineral 0.5 w/v %, saccharide 1 w/v %",14
same,Judgment score for biological activity,"[1]; mineral 1.0 w/v %, saccharide 1 w/v %",36
same,Judgment score for biological activity,[1]; [2],40
same,Judgment score for biological activity,"[1]; mineral 2.0 w/v %, saccharide 1 w/v %",45
same,Judgment score for biological activity,"[1]; mineral 2.5 w/v %, saccharide 1 w/v %",49
same,Judgment score for biological activity,"[1]; mineral 3.0 w/v %, saccharide 1 w/v %",53
same,Judgment score for biological activity,"[1]; mineral 3.5 w/v %, saccharide 1 w/v %",50
same,Judgment score for biological activity,"[1]; mineral 4.0 w/v %, saccharide 1 w/v %",47
same,Judgment score for biological activity,[1]; [3],45
same,Judgment score for biological activity,"[1]; mineral 5.0 w/v %, saccharide 1 w/v %",33
same,Judgment score for biological activity,"[1]; mineral 5.5 w/v %, saccharide 1 w/v %",11
same,Judgment score for biological activity,"[1]; mineral 6.0 w/v %, saccharide 1 w/v %",2
same,Germinated grains (Number),"unpolished rice; Experiment 7, mineral 1.5 w/v %, saccharide 0.01 w/v %, 48 hours",0
same,Germinated grains (Number),"unpolished rice; Experiment 7, mineral 1.5 w/v %, saccharide 0.01 w/v %, 72 hours",2
same,Germinated grains (Number),"unpolished rice; Experiment 7, mineral 1.5 w/v %, saccharide 0.01 w/v %, 96 hours",2
same,Germinated grains (Number),"unpolished rice; Experiment 7, mineral 1.5 w/v %, saccharide 0.01 w/v %, 120 hours",2
same,Germinated grains (Number),"unpolished rice; Experiment 7, mineral 1.5 w/v %, saccharide 0.1 w/v %, 48 hours",0
same,Germinated grains (Number),"unpolished rice; Experiment 7, mineral 1.5 w/v %, saccharide 0.1 w/v %, 72 hours",2
same,Germinated grains (Number),"unpolished rice; Experiment 7, mineral 1.5 w/v %, saccharide 0.1 w/v %, 96 hours",4
same,Germinated grains (Number),"unpolished rice; Experiment 7, mineral 1.5 w/v %, saccharide 0.1 w/v %, 120 hours",5
same,Germinated grains (Number),"unpolished rice; Experiment 7, mineral 1.5 w/v %, saccharide 1 w/v %, 48 hours",1
same,Germinated grains (Number),"unpolished rice; Experiment 7, mineral 1.5 w/v %, saccharide 1 w/v %, 72 hours",3
same,Germinated grains (Number),"unpolished rice; Experiment 7, mineral 1.5 w/v %, saccharide 1 w/v %, 96 hours",5
same,Germinated grains (Number),"unpolished rice; Experiment 7, mineral 1.5 w/v %, saccharide 1 w/v %, 120 hours",5
same,Germinated grains (Number),"unpolished rice; Experiment 7, mineral 1.5 w/v %, saccharide 2 w/v %, 48 hours",1
same,Germinated grains (Number),"unpolished rice; Experiment 7, mineral 1.5 w/v %, saccharide 2 w/v %, 72 hours",6
same,Germinated grains (Number),"unpolished rice; Experiment 7, mineral 1.5 w/v %, saccharide 2 w/v %, 96 hours",6
same,Germinated grains (Number),"unpolished rice; Experiment 7, mineral 1.5 w/v %, saccharide 2 w/v %, 120 hours",6
same,Germinated grains (Number),"unpolished rice; Experiment 7, mineral 1.5 w/v %, saccharide 3 w/v %, 48 hours",1
same,Germinated grains (Number),"unpolished rice; Experiment 7, mineral 1.5 w/v %, saccharide 3 w/v %, 72 hours",4
same,Germinated grains (Number),"unpolished rice; Experiment 7, mineral 1.5 w/v %, saccharide 3 w/v %, 96 hours",5
same,Germinated grains (Number),"unpolished rice; Experiment 7, mineral 1.5 w/v %, saccharide 3 w/v %, 120 hours",5
same,Germinated grains (Number),"unpolished rice; Experiment 7, mineral 1.5 w/v %, saccharide 4 w/v %, 48 hours",0
same,Germinated grains (Number),"unpolished rice; Experiment 7, mineral 1.5 w/v %, saccharide 4 w/v %, 72 hours",3
same,Germinated grains (Number),"unpolished rice; Experiment 7, mineral 1.5 w/v %, saccharide 4 w/v %, 96 hours",3
same,Germinated grains (Number),"unpolished rice; Experiment 7, mineral 1.5 w/v %, saccharide 4 w/v %, 120 hours",3
same,Germinated grains (Number),"unpolished rice; Experiment 7, mineral 1.5 w/v %, saccharide 6 w/v %, 48 hours",0
same,Germinated grains (Number),"unpolished rice; Experiment 7, mineral 1.5 w/v %, saccharide 6 w/v %, 72 hours",0
same,Germinated grains (Number),"unpolished rice; Experiment 7, mineral 1.5 w/v %, saccharide 6 w/v %, 96 hours",1
same,Germinated grains (Number),"unpolished rice; Experiment 7, mineral 1.5 w/v %, saccharide 6 w/v %, 120 hours",1
same,Germinated grains (Number),"unpolished rice; mineral 0.5 w/v %, saccharide 1 w/v %, 24 hours, 20 grains",0
same,Germinated grains (Number),"unpolished rice; mineral 0.5 w/v %, saccharide 1 w/v %, 48 hours, 20 grains",15
same,Germinated grains (Number),"unpolished rice; mineral 0.5 w/v %, saccharide 1 w/v %, 72 hours, 20 grains",19
same,Germinated grains (Number),"unpolished rice; mineral 0.5 w/v %, saccharide 1 w/v %, 96 hours, 20 grains",20
same,Germinated grains (Number),"unpolished rice; mineral 0.5 w/v %, saccharide 1 w/v %, 120 hours, 20 grains",20
same,Germinated grains (Number),"unpolished rice; mineral 1.0 w/v %, saccharide 1 w/v %, 24 hours, 20 grains",0
same,Germinated grains (Number),"unpolished rice; mineral 1.0 w/v %, saccharide 1 w/v %, 48 hours, 20 grains",3
same,Germinated grains (Number),"unpolished rice; mineral 1.0 w/v %, saccharide 1 w/v %, 72 hours, 20 grains",10
same,Germinated grains (Number),"unpolished rice; mineral 1.0 w/v %, saccharide 1 w/v %, 96 hours, 20 grains",16
same,Germinated grains (Number),"unpolished rice; mineral 1.0 w/v %, saccharide 1 w/v %, 120 hours, 20 grains",16
same,Germinated grains (Number),"unpolished rice; mineral 1.5 w/v %, saccharide 1 w/v %, 24 hours, 20 grains",0
same,Germinated grains (Number),"unpolished rice; mineral 1.5 w/v %, saccharide 1 w/v %, 48 hours, 20 grains",1
same,Germinated grains (Number),"unpolished rice; mineral 1.5 w/v %, saccharide 1 w/v %, 72 hours, 20 grains",3
same,Germinated grains (Number),"unpolished rice; mineral 1.5 w/v %, saccharide 1 w/v %, 96 hours, 20 grains",5
same,Germinated grains (Number),"unpolished rice; mineral 1.5 w/v %, saccharide 1 w/v %, 120 hours, 20 grains",5
same,Germinated grains (Number),"unpolished rice; mineral 2.0 w/v %, saccharide 1 w/v %, 24 hours, 20 grains",0
same,Germinated grains (Number),"unpolished rice; mineral 2.0 w/v %, saccharide 1 w/v %, 48 hours, 20 grains",0
same,Germinated grains (Number),"unpolished rice; mineral 2.0 w/v %, saccharide 1 w/v %, 72 hours, 20 grains",0
same,Germinated grains (Number),"unpolished rice; mineral 2.0 w/v %, saccharide 1 w/v %, 96 hours, 20 grains",0
same,Germinated grains (Number),"unpolished rice; mineral 2.0 w/v %, saccharide 1 w/v %, 120 hours, 20 grains",0
